Results on 1 substance are retold here after patent publication US20240342161A1, “BISBENZYLISOQUINOLINES AS CONDITIONING AGENTS FOR IMMUNE THERAPY” (priority 2023, published 2024).

For data set [1], the system named is bcr-abl. Briefly: qPCR assay for bcr-abl in plucked CML colonies. Type of data set: cell-based, human. Particulars: Secondary colonies, 10 μM, number of colonies; listed as Tetrandrine. The method, then:
To determine whether a colony was normal (bcr-abl negative and abl positive) or diseased (bcr-abl and abl positive), a TaqMan®-based qPCR test was used. In order to score the colonies positive or negative, the following scoring strategy was performed. All colonies were assayed in duplicate for each target. If a singleton reaction yielded a Ct then the reaction scored a 1. If no Ct was recorded, a score of 0 was given. From here, we used a logic test to score the colonies into four different categories: bcr-abl and abl, abl only, bcr-abl only or both negative. In order to be placed in a category, a colony must score a 1 in both reactions. However, if a colony only scored a 1 for one out of the two reactions, this colony was removed from the analysis. […] Alternatively, if a colony scored a 1 in only both of the bcr-abl reactions or a 1 in only both the abl reactions, the colony was placed in the bcr-abl only or abl only category, respectively. If the colony scored a 0 for both targets (bcr-abl and abl) then the colony was placed in the both negative category.
In total 48 primary colonies and 31 secondary replated colonies were assessed for bcr-abl and abl using qPCR. […] Thirteen secondary colonies treated with Tetrandrine at 10 μM were assessed.
For orientation: In qPCR the cycle at which signal appears reflects the starting amount.

Data set [2] concerns CML colonies, secondary clonal growth. Kind of data set: Replating assay (secondary clonal growth of CML colonies). Type of data set: cell-based, human. To be noted: colonies from original cultures with ES-3000 @ 10 μM; 24 wells.
The subject of data set [3] is β-catenin. Briefly: β-catenin protein level in K562 cell extracts by western blot. Type of data set: cell-based, human. The protocol:
The second portion was to quantitate the levels of β-catenin protein by western blot. TET's ability in an in vitro assay to reduce β-catenin expression was tested in human erythroleukemic (K562) cells. Testing was conducted by Alamo Laboratories, San Antonia, TX.
Briefly, the method to quantitate β-catenin protein by western blot was as follows: Extracts of K562 cells (untreated and treated with various concentrations of tetrandrine) were concentrated to 0.4 ml using Centricon-3 column to yield a protein concentration of approximately 2 mg/ml. Samples were mixed with 5× Laemmli buffer and loaded on 8-16% Tris-Glycine gradient gel, then polyacrylamide gel electrophoresis (PAGE) was run at 85 volts for 100 minutes at 6° C. and proteins were transferred on PVDF membrane at 70 Volts for 85 minutes at 8° C. Membrane was blocked with 5% milk in Tris-buffered Saline containing 0.1% TW-20 (TBST). Membrane was incubated with primary antibody for 18 hours at 4° C. followed by 3 washes, 5 minutes each, with TBST and incubated with secondary antibody in TBST for 2 hours at 25° C. The membrane was washed again with TBST as described above and incubated with ECL-2 substrate for 5 minutes and scanned on Kodak Image Station. After scan, blot was stripped of primary and secondary antibodies and re-probed with anti-beta Actin antibody as described above. Protein bands in WB images were quantitated using Molecular Imaging software pack MIS-4.0 software and tabulated in Excel spreadsheet.
Background: In western blotting, separated proteins are transferred to a membrane and probed.

Data set [4] has as its target T1, CAMKII gamma (Homo sapiens, UniProt Q13555).
T1 construct: purchased Promega V3531
Briefly: CAMKII gamma kinase activity (ADP Glo). To be noted: for units: duplicate reactions. Type of data set: biochemical. The method, then: An enzymatic study was conducted to evaluate the inhibition of CAMKII gamma by ES-3000 (Tetrandrine). CAMKII gamma kinase activity was measured using […] purchased from Promega following the Promega protocol. CAMKII enzyme system purchased from Promega (V3531). ADP Glo was used for detection. Assay optimized for linearity of protein and time. Conditions for inhibitor screening 25 ng CAMKII, 20 min. incubations, inhibitor or DMSO (5%) at RT in 20 uL total volume. Inhibitor, ATP (10 or 50 μM), substrates and buffer added to tubes and reactions started with enzyme. […] Reactions terminated at 20 min. by adding ADP Glo reaction following manufactures instructions. All reactions were done in duplicate. Calculations of percent (%) inhibition determined by dividing the mean activity at each condition by the mean of the DMSO control times 100.
On the technique in general: In ADP-Glo the light output rises with the ADP produced.

Data set [5] deals with hERG (Homo sapiens, UniProt Q12809). Kind of data set: hERG inhibition, IonWorks HT electrophysiology in CHO cells stably transfected with hERG.
Chain of hERG (Q12809 whole entry): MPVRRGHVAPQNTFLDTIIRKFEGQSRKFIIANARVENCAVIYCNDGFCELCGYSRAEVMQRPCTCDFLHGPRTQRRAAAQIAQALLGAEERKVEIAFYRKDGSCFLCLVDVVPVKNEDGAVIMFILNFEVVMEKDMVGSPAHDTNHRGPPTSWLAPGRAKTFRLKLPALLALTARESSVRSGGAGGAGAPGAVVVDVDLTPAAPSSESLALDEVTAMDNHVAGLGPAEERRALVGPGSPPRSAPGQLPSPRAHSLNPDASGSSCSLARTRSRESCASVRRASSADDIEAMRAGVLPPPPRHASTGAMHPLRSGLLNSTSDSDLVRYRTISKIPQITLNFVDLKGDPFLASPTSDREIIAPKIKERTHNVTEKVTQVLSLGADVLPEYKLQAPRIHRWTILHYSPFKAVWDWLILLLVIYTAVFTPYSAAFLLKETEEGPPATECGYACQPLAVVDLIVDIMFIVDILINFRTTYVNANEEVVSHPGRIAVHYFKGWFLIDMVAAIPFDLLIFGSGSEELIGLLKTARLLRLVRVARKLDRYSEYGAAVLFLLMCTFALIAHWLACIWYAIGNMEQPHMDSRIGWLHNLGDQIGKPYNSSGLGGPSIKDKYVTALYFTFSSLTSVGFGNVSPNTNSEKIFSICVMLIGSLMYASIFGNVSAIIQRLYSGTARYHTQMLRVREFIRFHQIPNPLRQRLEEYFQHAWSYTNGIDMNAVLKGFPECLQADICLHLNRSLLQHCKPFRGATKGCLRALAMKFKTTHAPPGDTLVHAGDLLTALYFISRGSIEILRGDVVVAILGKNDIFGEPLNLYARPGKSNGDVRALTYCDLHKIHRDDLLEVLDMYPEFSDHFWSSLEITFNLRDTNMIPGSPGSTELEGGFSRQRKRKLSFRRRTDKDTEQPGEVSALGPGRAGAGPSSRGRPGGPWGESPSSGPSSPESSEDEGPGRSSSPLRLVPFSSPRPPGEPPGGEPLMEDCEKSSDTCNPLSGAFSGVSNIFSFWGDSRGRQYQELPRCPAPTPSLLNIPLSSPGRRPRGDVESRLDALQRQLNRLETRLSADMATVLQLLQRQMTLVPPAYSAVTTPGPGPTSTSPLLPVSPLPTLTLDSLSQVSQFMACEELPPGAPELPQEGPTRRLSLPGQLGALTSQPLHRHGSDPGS
Data set [6] has as its target P-glycoprotein (P-gp) (Homo sapiens, UniProt P08183). To be noted: cited from earlier work.

Where “and” joins values, the source holds several entries; their conditions need not be identical. Identical values can stand only once.

T1 sequence (Q13555 whole entry): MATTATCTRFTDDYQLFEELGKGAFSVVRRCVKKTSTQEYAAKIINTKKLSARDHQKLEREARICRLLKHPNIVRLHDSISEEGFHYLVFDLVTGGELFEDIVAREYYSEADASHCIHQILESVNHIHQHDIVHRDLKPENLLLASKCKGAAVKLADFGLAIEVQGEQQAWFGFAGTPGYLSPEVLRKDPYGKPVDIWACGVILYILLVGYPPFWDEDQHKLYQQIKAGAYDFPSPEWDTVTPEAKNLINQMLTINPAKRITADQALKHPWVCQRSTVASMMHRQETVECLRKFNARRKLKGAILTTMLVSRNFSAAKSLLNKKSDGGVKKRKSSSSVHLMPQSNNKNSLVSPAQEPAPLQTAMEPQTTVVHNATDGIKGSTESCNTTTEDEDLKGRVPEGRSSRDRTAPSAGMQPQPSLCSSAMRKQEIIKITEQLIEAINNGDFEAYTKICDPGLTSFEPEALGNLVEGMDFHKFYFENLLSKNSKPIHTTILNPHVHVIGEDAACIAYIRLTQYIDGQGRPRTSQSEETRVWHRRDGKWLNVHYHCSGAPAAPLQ
Chain of P-glycoprotein (P-gp) (P08183 whole entry): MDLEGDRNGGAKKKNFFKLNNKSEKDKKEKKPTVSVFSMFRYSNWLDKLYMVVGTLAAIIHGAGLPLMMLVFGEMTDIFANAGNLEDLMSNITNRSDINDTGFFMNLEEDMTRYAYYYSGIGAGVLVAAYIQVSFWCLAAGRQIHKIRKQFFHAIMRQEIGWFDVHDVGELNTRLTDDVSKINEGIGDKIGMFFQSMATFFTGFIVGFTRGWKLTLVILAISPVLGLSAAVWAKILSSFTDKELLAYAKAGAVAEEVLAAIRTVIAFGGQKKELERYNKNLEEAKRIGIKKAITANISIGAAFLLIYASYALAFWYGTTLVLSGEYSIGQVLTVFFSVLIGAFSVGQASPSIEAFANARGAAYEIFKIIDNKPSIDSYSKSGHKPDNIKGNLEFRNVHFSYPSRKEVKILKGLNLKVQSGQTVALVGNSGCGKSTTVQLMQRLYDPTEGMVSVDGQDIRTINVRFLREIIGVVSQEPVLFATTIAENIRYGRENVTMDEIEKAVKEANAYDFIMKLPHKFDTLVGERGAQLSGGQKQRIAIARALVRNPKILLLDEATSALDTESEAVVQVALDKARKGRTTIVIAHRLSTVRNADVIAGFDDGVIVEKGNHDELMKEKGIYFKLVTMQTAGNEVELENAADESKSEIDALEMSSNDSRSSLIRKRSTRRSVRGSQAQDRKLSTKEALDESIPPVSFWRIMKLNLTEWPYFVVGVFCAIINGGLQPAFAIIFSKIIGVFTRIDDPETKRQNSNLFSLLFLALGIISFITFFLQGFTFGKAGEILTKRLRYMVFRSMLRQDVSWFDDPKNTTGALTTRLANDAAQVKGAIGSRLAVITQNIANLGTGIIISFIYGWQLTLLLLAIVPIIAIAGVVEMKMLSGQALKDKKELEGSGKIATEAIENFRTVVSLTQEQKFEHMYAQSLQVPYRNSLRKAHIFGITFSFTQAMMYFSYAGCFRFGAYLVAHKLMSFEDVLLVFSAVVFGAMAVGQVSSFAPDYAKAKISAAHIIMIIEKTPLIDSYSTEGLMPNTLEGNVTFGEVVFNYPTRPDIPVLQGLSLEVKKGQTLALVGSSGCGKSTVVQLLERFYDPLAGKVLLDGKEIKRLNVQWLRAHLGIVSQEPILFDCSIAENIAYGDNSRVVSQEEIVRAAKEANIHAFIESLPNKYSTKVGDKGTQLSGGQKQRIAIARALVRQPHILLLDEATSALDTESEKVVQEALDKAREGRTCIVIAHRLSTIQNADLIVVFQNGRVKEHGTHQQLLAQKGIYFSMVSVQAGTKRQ

As to “6,6′,7,12-tetramethoxy-2,2′-dimethyl-berbaman [ES-3000]”, in data set [1], the “bcr-abl and abl colonies” value was “No colonies scored positive for bcr-abl and abl”. Besides, the “Replating colony count per well” value in data set [2] is given as 1. Besides, in data set [3] (K562 cells treated with 0 to 10 uM), the β-catenin band result is “evident”. Besides, in data set [3] (K562 cells treated with 20 and 40 uM), the “convincing β-catenin band” value is “absent”. In data set [3] (K562 cells, 0 to 40 uM, 24 hours), the “β-catenin level, result in words” value is listed as “lowers the β-catenin level in K562 cells in a dose dependent manner”. Besides, the mean came to 3.09 in data set [4] (10 uM ATP, inhibitor 30 uM); 2.87 in data set [4] (10 uM ATP, inhibitor 100 uM); 0.41 in data set [4] (10 uM ATP, inhibitor 250 uM); 10.55 in data set [4] (50 uM ATP, inhibitor 30 uM); 7.955 in data set [4] (50 uM ATP, inhibitor 100 uM). Besides, the units was 2.75 units and 3.43 units in data set [4] (10 uM ATP, inhibitor 30 uM); 2.5 units and 3.24 units in data set [4] (10 uM ATP, inhibitor 100 uM); 0.34 units and 0.48 units in data set [4] (10 uM ATP, inhibitor 250 uM); 10.4 units and 10.7 units in data set [4] (50 uM ATP, inhibitor 30 uM); 8.81 units and 7.1 units in data set [4] (50 uM ATP, inhibitor 100 uM). In addition, the “CAMKII gamma kinase activity inhibition, result in words” value in data set [4] (30-250 uM, 10 or 50 μM ATP) is given as “inhibited CAMKII gamma kinase activity in a dose dependent manner”. Further, the “plasma levels above which QT prolongation might be expected in subjects” value in data set [5] (interpretation from hERG IC50 and protein binding) is “above 249 ng/mL”. Besides, the “safety for cardiac conduction-related toxicity (hERG IC50 versus human Cmax)” value in data set [5] (utilizing Cmax from previous human clinical experience) was found to be 13 fold. The “substrate of P-gp” value in data set [6] is given as “not a substrate of P-gp”. In data set [6] (without altering the protein expression level of Pgp), the “function of P-gp” value was “directly inhibits the function of P-gp in a dose-dependent manner”.
